Series [1] concerns the target ATP-dependent translocase ABCB1 (Mus musculus, UniProt P06795). Put plainly: TP_TRANSPORTER: increase in Calcein-AM intracellular accumulation in mdr1b-expressing LLC-PK1 cells. The series is classed as functional, cell-based.
In series [2] the target is T1, ATP-dependent translocase ABCB1 (Mus musculus, UniProt P21447). Put plainly: TP_TRANSPORTER: increase in Calcein-AM intracellular accumulation in mdr1a-expressing LLC-PK1 cells. Format: functional, cell-based.
Series [3] concerns the target T1, ATP-dependent translocase ABCB1. In words: TP_TRANSPORTER: transepithelial transport (basal to apical) in mdr1a-expressing LLC-PK1 cell. Format: functional, cell-based. To be noted: pig.
Series [4] shares this target. In words: TP_TRANSPORTER: increase in kidney concentration in mdr1a(-/-) mouse. The series is classed as functional, organism-based. Conditions: in vivo.
Series [5] shares this target. Put plainly: TP_TRANSPORTER: increase in lung concentration in mdr1a(-/-) mouse. Format: functional, organism-based. Conditions: in vivo.
For series [6] the target is unchanged. Put plainly: TP_TRANSPORTER: increase in heart concentration in mdr1a(-/-) mouse. To be noted: in vivo. The series is classed as functional, organism-based.
For series [7] the target is unchanged. Put plainly: TP_TRANSPORTER: increase in liver concentration in mdr1a(-/-) mouse. Format: functional, organism-based. To be noted: in vivo.
Series [8] shares this target. Put plainly: TP_TRANSPORTER: increase in spleen concentration in mdr1a(-/-) mouse. The series is classed as functional, organism-based. To be noted: in vivo.
For series [9] the target is unchanged. In words: TP_TRANSPORTER: no influence on tissue distribution in mdr1a(-/-) mouse. The series is classed as functional, organism-based. Conditions: in vivo.
In series [10] the target is ATP-dependent translocase ABCB1 (Homo sapiens, UniProt P08183). In words: TP_TRANSPORTER: transepithelial transport (basal to apical) in MDR1-expressing LLC-PK1 cells. Format: functional, cell-based. Conditions: pig.
ATP-dependent translocase ABCB1 (Homo sapiens, UniProt P08183), sequence (P08183 whole entry): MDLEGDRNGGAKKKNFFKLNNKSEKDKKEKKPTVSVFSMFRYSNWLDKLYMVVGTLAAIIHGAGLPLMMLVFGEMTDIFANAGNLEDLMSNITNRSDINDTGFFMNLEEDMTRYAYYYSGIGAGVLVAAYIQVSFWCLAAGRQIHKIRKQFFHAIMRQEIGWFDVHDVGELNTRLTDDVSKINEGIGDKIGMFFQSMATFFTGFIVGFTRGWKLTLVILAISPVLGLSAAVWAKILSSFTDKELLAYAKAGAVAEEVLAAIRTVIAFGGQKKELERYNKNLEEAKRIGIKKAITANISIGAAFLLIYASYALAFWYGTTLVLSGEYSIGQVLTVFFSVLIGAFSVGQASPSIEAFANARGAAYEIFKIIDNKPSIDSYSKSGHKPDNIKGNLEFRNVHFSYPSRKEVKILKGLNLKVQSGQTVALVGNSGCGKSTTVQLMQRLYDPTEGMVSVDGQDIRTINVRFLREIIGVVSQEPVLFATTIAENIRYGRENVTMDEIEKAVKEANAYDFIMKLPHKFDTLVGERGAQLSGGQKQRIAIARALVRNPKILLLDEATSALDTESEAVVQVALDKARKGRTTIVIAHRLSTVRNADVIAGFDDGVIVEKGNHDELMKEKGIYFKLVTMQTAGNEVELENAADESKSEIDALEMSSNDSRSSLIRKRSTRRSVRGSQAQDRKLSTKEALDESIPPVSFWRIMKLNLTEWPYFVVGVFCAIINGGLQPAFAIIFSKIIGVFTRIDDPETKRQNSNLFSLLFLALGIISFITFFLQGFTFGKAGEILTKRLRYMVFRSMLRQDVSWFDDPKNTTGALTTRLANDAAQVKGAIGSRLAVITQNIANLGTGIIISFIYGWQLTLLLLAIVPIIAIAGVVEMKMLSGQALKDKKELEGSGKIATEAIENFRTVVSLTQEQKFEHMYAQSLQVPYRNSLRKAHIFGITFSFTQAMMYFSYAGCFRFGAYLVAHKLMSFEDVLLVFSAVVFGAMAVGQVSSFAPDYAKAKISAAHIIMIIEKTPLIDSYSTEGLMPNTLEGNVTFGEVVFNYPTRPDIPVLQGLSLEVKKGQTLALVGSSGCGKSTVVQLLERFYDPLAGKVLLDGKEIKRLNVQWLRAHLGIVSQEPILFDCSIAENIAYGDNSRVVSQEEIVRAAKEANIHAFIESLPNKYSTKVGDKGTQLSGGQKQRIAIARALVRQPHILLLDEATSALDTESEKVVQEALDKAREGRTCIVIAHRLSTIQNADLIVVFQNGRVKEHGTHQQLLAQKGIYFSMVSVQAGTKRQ

Molecules are shown by their SMILES.

ATP-dependent translocase ABCB1 (Mus musculus, UniProt P06795), sequence (P06795 whole entry): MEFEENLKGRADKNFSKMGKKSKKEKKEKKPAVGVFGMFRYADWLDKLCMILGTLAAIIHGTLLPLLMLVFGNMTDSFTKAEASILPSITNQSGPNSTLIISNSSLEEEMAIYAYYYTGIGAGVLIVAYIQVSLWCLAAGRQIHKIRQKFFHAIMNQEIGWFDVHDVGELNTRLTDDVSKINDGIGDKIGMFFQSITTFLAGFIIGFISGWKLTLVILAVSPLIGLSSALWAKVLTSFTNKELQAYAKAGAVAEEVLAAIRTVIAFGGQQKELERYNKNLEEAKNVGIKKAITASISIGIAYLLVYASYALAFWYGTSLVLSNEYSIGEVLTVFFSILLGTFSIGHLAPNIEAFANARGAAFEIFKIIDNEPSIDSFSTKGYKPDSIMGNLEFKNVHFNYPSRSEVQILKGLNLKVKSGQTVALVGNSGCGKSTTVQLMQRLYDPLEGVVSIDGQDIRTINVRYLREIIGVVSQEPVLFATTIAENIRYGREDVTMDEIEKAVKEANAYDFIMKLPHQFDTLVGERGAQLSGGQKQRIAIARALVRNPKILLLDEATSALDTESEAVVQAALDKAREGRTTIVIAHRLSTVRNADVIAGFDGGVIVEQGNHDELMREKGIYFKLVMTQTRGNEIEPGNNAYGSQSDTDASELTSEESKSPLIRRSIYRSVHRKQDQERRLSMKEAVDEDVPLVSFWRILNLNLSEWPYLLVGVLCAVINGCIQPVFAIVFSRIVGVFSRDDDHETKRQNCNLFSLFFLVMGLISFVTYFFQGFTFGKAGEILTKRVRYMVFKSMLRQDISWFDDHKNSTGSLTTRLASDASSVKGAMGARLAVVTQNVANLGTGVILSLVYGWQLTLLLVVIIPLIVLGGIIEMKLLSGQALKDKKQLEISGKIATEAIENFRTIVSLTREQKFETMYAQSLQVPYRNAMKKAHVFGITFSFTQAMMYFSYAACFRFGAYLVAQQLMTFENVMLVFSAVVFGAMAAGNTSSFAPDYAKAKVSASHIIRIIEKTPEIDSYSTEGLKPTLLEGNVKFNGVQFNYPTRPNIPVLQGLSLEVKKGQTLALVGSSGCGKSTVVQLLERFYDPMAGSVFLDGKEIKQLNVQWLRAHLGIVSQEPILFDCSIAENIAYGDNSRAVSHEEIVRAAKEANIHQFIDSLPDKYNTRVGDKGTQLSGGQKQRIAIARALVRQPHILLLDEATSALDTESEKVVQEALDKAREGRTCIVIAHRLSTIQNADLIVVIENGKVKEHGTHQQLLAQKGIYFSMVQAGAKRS
T1 sequence (P21447 whole entry): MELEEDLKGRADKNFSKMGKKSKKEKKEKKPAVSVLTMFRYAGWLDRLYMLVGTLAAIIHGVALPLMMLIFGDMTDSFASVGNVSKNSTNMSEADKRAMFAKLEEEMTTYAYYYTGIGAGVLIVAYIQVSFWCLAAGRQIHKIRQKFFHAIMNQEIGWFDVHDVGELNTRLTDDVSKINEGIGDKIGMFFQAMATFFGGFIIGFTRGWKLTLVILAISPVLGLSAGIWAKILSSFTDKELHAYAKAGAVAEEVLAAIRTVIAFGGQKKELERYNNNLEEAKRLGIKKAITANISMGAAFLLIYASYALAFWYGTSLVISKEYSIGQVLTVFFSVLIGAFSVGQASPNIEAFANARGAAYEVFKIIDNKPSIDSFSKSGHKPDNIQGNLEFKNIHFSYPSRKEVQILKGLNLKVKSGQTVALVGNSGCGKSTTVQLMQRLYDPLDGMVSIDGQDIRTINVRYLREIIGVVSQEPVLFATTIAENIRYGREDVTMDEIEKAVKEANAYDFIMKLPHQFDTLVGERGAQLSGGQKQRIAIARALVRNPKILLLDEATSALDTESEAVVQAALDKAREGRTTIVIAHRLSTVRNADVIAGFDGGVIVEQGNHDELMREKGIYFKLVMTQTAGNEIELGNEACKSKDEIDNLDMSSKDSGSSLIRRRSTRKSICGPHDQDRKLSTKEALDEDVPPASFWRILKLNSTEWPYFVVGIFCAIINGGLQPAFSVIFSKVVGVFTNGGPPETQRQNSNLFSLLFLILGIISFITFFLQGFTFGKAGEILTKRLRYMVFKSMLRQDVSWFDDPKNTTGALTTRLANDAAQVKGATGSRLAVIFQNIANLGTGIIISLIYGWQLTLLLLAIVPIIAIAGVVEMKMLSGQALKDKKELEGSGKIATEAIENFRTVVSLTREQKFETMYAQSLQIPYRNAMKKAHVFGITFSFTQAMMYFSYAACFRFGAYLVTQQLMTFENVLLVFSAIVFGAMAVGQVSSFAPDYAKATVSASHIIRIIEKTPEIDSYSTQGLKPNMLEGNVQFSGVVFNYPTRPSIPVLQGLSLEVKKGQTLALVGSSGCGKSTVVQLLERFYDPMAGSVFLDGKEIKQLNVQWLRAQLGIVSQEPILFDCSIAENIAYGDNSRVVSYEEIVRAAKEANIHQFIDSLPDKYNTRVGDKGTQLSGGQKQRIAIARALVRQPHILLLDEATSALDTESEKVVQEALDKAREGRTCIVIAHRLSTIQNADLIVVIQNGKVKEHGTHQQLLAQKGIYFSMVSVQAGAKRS

On to `CC(C)[C@@]1(NC(=O)[C@@H]2C=C3c4cccc5[nH]cc(c45)C[C@H]3N(C)C2)O[C@@]2(O)[C@@H]3CCCN3C(=O)[C@H](Cc3ccccc3)N2C1=O` [ERGOCRISTINE], for which the inhibitory constant (Ki) in [1] is 15.3 µM; in series [2], 39.4 µM.

Take `Clc1ccccc1C(c1ccccc1)(c1ccccc1)n1ccnc1` [CLOTRIMAZOLE]: the values for the inhibitory constant (Ki) in [1] and in series [2] were 25.1 µM and 18.3 µM, respectively.

As for `Clc1ccc(COC(Cn2ccnc2)c2ccc(Cl)cc2Cl)c(Cl)c1` (stereo not given) [MICONAZOLE], in series [2], the Ki was 22.2 µM.

Consider `CC(C)[C@H]1C(=O)N2CCC[C@H]2[C@]2(O)O[C@](NC(=O)[C@@H]3C=C4c5cccc6[nH]cc(c56)C[C@H]4N(C)C3)(C(C)C)C(=O)N12` [ERGOCORNINE], for which the inhibitory constant (Ki) in [1] was 19.1 µM; in [2], 272 µM.

With `CC(C)C[C@H]1C(=O)N2CCC[C@H]2[C@]2(O)O[C@](NC(=O)[C@@H]3C[C@@H]4c5cccc6[nH]cc(c56)C[C@H]4N(C)C3)(C(C)C)C(=O)N12` [DIHYDROERGOCRYPTINE], the Activity entry in series [3] and in series [4] was “substrate [+]” in each case. Besides, the Ki in series [1] is 160 µM; in [2], 333 µM.

For `CC(C)C[C@H]1C(=O)N2CCC[C@H]2[C@]2(O)O[C@](NC(=O)[C@@H]3C=C4c5cccc6[nH]cc(c56)C[C@H]4N(C)C3)(C(C)C)C(=O)N12` [ERGOCRYPTINE], the Ki in series [1] was 26.9 µM; in series [2] it was 43.5 µM.

For the molecule `COC(=O)[C@H]1[C@H]2C[C@@H]3c4[nH]c5cc(OC)ccc5c4CCN3C[C@H]2C[C@@H](OC(=O)c2cc(OC)c(OC)c(OC)c2)[C@@H]1OC` [RESERPINE], the Activity entry in series [5], in series [6], in [3], in series [7], in [8] and in series [4] was “substrate [+]” each time. Moreover, the Ki is 17.9 µM in series [1] and 4.03 µM in series [2].

For `CC(C)C[C@H]1C(=O)N2CCC[C@H]2[C@]2(O)O[C@](NC(=O)[C@@H]3C=C4c5cccc6[nH]c(Br)c(c56)C[C@H]4N(C)C3)(C(C)C)C(=O)N12` [BROMOCRIPTINE], the figures for the Ki in series [1] and in series [2] were 6.39 µM and 7.48 µM, respectively.

For `CC[C@H]1OC(=O)[C@H](C)[C@@H](O[C@H]2C[C@@](C)(OC)[C@@H](O)[C@H](C)O2)[C@H](C)[C@@H](O[C@@H]2O[C@H](C)C[C@H](N(C)C)[C@H]2O)[C@](C)(O)C[C@@H](C)C(=O)[C@H](C)[C@@H](O)[C@]1(C)O` [ERYTHROMYCIN], in [2], the Ki was above 1000 µM.

Regarding `C[C@@H](CO)NC(=O)[C@@H]1C=C2c3cccc4[nH]cc(c34)C[C@H]2N(C)C1` [ERGONOVINE], the values for the inhibition constant Ki in series [1] and in [2] were above 1000 µM and 118 µM, respectively.

As to `CN1C[C@H](C(=O)N[C@]2(C)O[C@@]3(O)[C@@H]4CCCN4C(=O)[C@H](Cc4ccccc4)N3C2=O)C=C2c3cccc4[nH]cc(c34)C[C@H]21` [ERGOTAMINE], the Ki in series [1] was 18 µM; in series [2] it was 189 µM.

For the molecule `CN1C[C@H](C(=O)N[C@]2(C)O[C@@]3(O)[C@@H]4CCCN4C(=O)[C@H](Cc4ccccc4)N3C2=O)C[C@@H]2c3cccc4[nH]cc(c34)C[C@H]21` [DIHYDROERGOTAMINE], the Ki in [1] and in [2] was above 1000 µM throughout.

With `OC(Cn1cncn1)(Cn1cncn1)c1ccc(F)cc1F` [FLUCONAZOLE], the Activity entry in series [3] is “substrate [+]”; in [9] it was “is not a substrate [-]”; in series [10], “is not a substrate [-]”. Besides, the Ki in [1] and in series [2] was above 1000 µM in each case.

With `CC(C)[C@@]1(NC(=O)[C@@H]2C[C@@H]3c4cccc5[nH]cc(c45)C[C@H]3N(C)C2)O[C@@]2(O)[C@@H]3CCCN3C(=O)[C@H](Cc3ccccc3)N2C1=O` [DIHYDROERGOCRISTINE], the Activity entry in series [10] was “substrate [+]”. The Ki was 167 µM in series [1] and 111 µM in series [2].

For the molecule `CO[C@H]1C[C@H](O[C@H]2[C@H](C)[C@@H](O[C@@H]3O[C@H](C)C[C@H](N(C)C)[C@H]3OC(C)=O)[C@@H](C)C[C@@]3(CO3)C(=O)[C@H](C)[C@@H](OC(C)=O)[C@@H](C)[C@@H](C)OC(=O)[C@@H]2C)O[C@@H](C)[C@@H]1OC(C)=O` [TROLEANDOMYCIN], the inhibition constant Ki in series [1] was above 1000 µM; in [2] it was 217 µM.

What is called Ki is the dissociation constant of the complex between target and ligand, obtained from inhibition or displacement.
